{"source": "patent US20200024573A1", "about": "“CHEMICAL DIFFERENTIATION OF PLURIPOTENT STEM CELLS INTO RETINAL EPITHELIAL CELLS” (International Stem Cell Corporation, priority 2014, published 2020)", "test_system": "retinal epithelial progenitor cells", "test": "Derivation of retinal pigmented epithelium from hPSCs in 3D culture", "format": "cell-based, human", "details": "hPSC 3D cultures, N2/B27 medium containing Chir99021 (3 μM) for 15 days, after 12 days SB431542, IWR-1, DMH-1, Y-27632", "method": "hPSCs cells growing under feeder-free culture conditions were dissociated with Accutase and grown in suspension in Ultra-low 6 well plates, with N2/B27 medium (DMEM/F12 with GlutaMAX, 1× N2/B27 Supplement) plus SB431542 (10 μM), IWR-1 (3 μM), DMH-1 (2 μM), and Y-27632 (10 μM) for 12 days (FIGS. 1A-1C) to generate retinal epithelial progenitor cells. After 12 days, to differentiate the retinal epithelial progenitor cells into retinal pigmented epithelium into RPEs, hPSC 3D cultures were switch into N2/B27 medium containing Chir99021 (3 μM) for 15 days (FIGS. 1A-1C and 2). […] Derivation of RPEs was confirmed by immunohistochemistry for RPE specific protein expression (MITF, ZO-1, Best-1 and Melanosome) and by RT-PCR gene analysis for RPE specific gene markers ([…], BEST1 OTX2, RLBP1, RPE65 and SERINF1) (FIGS. 3 and 4). FACS analysis was performed to determine the percentage of cells positive for RPE specific proteins MITF, Mel and BEST (FIGS. 5A-5C)."}
{"smiles": "Cc1c[nH]c(-c2cnc(NCCNc3ccc(C#N)cn3)nc2-c2ccc(Cl)cc2Cl)n1", "note": "[Chir99021]", "values": [{"measurement": "maturation/pigmentation of retinal epithelial progenitor cells", "value": "promotes the maturation/pigmentation of retinal epithelial progenitor cells"}]}
